# Source: publication PMC8657848, “Developmental Toxicity and Biotransformation of Two Anti-Epileptics in Zebrafish Embryos and Early Larvae” (International Journal of Molecular Sciences, 2021)
# Like-named read-outs stand apart in the source and are kept apart here.
# What was measured:
# [1] = set-up: method as in PMID 20832863; conditions: after 70.5 h of exposure (time point 72 hpf); cited from earlier work
# zebrafish embryos/larvae = test: Quantification of metabolites E-CBZ and HPPH in pooled culture medium exposed to zebrafish embryos/larvae; type: in vivo, Danio rerio; conditions: 250 µM CBZ
# Protocol: (§1) The control and test mediums were also kept in the same incubator until the last time point of the experiment. The embryo media were renewed every 48 h, to avoid medium acidification and oxygen deprivation. At each medium change and at the last time point of the experiment (Figure 9), the media exposed to the embryos were pooled and kept at −80 °C for further use (n = 3).
# zebrafish embryos = conditions: cited from earlier work; for Embryos affected, combining teratogenic and lethal effects: after three days of exposure
# [2] = Quantification of compound in stock and culture medium relative to nominal concentration (LC-MS); type: physicochemical; conditions: for Percentage of quantified compound concentration relatively to the nominal concentration: CBZ–E-CBZ
# Protocol: as §1, with “3). Moreover, samples from the stock solutions kept at 28.5 °C ± 0.3 °C were also taken at 0 and 120 hpf (n = 3), whereas samples were only taken at 96 hpf for the metabolites medium (E-CBZ and HPPH).” for “3).”
# [3] = test system: zebrafish embryos and larvae; test: Morphological evaluation of zebrafish embryos/larvae exposed from 5¼ to 120 hpf; conditions: in vivo
# Protocol: Each experiment was performed in two biological replicates (n = 2, 20 embryos/replicate) and consisted of a medium control group (EMS), solvent control group(s) (EMS + 0.5% DMSO and/or EMS + 1% DMSO) and four dose groups. […] Embryos were reared until they reached the desired developmental stage, under the same environmental conditions as the adults (28.5 °C ± 0.3 °C with a 14/10 h light/dark cycle) in the incubator (TIN-IN35, Phoenix instrument, Garbsen, Germany).
# For the metabolites, E-CBZ (≥98% purity, CAS number: 36507-30-9, Supelco, Merck, Darmstadt, Germany) and HPPH (98% purity, CAS number: 2784-27-2, Sigma-Aldrich®, Merck, Darmstadt, Germany), we only selected one high concentration, 250 µM (see Supplementary Table S1). […] A higher percentage of DMSO was used for E-CBZ for the optimum dissolution of E-CBZ in EMS. Immediately after the selection (see Section 4.1), twenty embryos were randomly distributed in each control and test group. Embryos were exposed at the latest at 5 hpf in a final volume of 300 µL medium at a density of a fish per well.
# For each biological replicate (n = 2), zebrafish embryos were morphologically investigated at 5¼, 10, 24, 48, 72, 96 and 120 hpf (Figure 9) using an Olympus CKX41 microscope with an Olympus U-TV0.5XC-3 lighting and an Olympys 4x/0.16 Uplan APO microscope objective (Shinjuku, Tokyo, Japon) to follow the developmental stages described by Kimmel et al.. The 5¼- and 10-hpf time points served as control steps to identify unfertilized or coagulated eggs that were included unwittingly to the experiment and referenced as coagulated in the 24-hpf morphological sheet (see Supplementary Figure S3). A series of morphological parameters were explored, adapted from Nagel et al., depending on the different time points of interest and described previously by our group (see Supplementary Figure S3). All parameters were scored 0 if normal and 1 if malformed. This binary scale was used to facilitate the scoring and no gradation of the severity of the endpoints was evaluated in this study.
# [4] = Microsomal incubation with CBZ and PHE, supersomes (negative control); type: in vitro ADME; conditions: data not shown
# Protocol: Moreover, positive and negative controls were included: pooled human liver microsomes (Gibco™, HMMCPL–PL050B, Thermo Fisher Scientific) and Insect Cell Control Supersomes™ (lot number: PL050 C-B, 456201, Corning Incorporated, Corning, NY, USA), respectively. Based on Oziolor et al., microsomal reactions were initiated after adding the substrate solution at a concentration of 100 µM (see Supplementary Table S1) in a mixture of 100 mM K3PO4 buffer (Corning® Gentest™, NY, USA) of pH 7.4, 5% and 1% of NADPH regenerating system reagents A and B, respectively (Corning, Woburn, MA, USA) and 200 µg/mL of microsomal protein, for a total volume of 500 µL. The reactions were performed at 28.5 ± 0.3 °C until the time point of interest. […] The reactions were stopped at two time points (5 and 240 min) by sampling 40 µL, in duplicate, of the main microsomal reaction and mixed with 120 µL cold (4 °C) acetonitrile (ACN) (Merck, Darmstadt, Germany) already containing the internal standard (IS), LAMO. The samples were then centrifuged for 10 min at 10,000× g to precipitate the proteins, which were denatured in cold ACN.
# [5] = zebrafish (Danio rerio), 120 hpf, 85 µM
# [6] = zebrafish (Danio rerio), 120 hpf, 250 µM
# [7] = zebrafish (Danio rerio), 120 hpf, 31.25 µM
smiles,measurement,setting,value
"NC(=O)N1c2ccccc2C=Cc2ccccc21 [CBZ, carbamazepine]",Average quantified concentration higher than the nominal concentration,[1],22.3%
same,Increase of E-CBZ in culture medium between 96 and 120 hpf,zebrafish embryos/larvae,six-fold
same,"Embryos affected, combining teratogenic and lethal effects",zebrafish embryos; 31.25 µM,less than 20%
same,"Embryos affected, combining teratogenic and lethal effects",zebrafish embryos; 250 µM,around 50%
same,Percentage of larvae affected at 72 hpf,zebrafish embryos; 250 µM,48.3 ± 11.5%
same,Percentage of quantified compound concentration relatively to the nominal concentration,"[2]; Culture medium exposed to embryos/larvae, nominal 31.25 µM, 48 hpf",95.4 ± 16.2%
same,Percentage of quantified compound concentration relatively to the nominal concentration,"[2]; Culture medium, nominal 31.25 µM, 96 hpf",101.2 ± 21.7%
same,Percentage of quantified compound concentration relatively to the nominal concentration,"[2]; Culture medium, nominal 31.25 µM, 120 hpf",109.6 ± 5.4%
same,Percentage of quantified compound concentration relatively to the nominal concentration,"[2]; Culture medium, nominal 85 µM, 48 hpf",110.0 ± 4.8%
same,Percentage of quantified compound concentration relatively to the nominal concentration,"[2]; Culture medium, nominal 85 µM, 96 hpf",116.8 ± 4.7%
same,Percentage of quantified compound concentration relatively to the nominal concentration,"[2]; Culture medium, nominal 85 µM, 120 hpf",113.9 ± 4.5%
same,Percentage of quantified compound concentration relatively to the nominal concentration,"[2]; Culture medium, nominal 250 µM, 48 hpf",113.4 ± 14.1%
same,Percentage of quantified compound concentration relatively to the nominal concentration,"[2]; Culture medium, nominal 250 µM, 96 hpf",114.2 ± 2.6%
same,Percentage of quantified compound concentration relatively to the nominal concentration,"[2]; Culture medium, nominal 250 µM, 120 hpf",111.5 ± 2.6%
same,Percentage of quantified compound concentration relatively to the nominal concentration,"[2]; Stock, nominal 31.25 µM, 0 hpf, average of three replicates",95.6 ± 2.0%
same,Percentage of quantified compound concentration relatively to the nominal concentration,"[2]; Stock, nominal 31.25 µM, 120 hpf",101.6 ± 7.7%
same,Percentage of quantified compound concentration relatively to the nominal concentration,"[2]; Stock, nominal 85 µM, 0 hpf",81.7 ± 18.7%
same,Percentage of quantified compound concentration relatively to the nominal concentration,"[2]; Stock, nominal 85 µM, 120 hpf",90.4 ± 6.6%
same,Percentage of quantified compound concentration relatively to the nominal concentration,"[2]; Stock, nominal 250 µM, 0 hpf",92.1 ± 5.3%
same,Percentage of quantified compound concentration relatively to the nominal concentration,"[2]; Stock, nominal 250 µM, 120 hpf",98.4 ± 4.6%
same,Teratogenicity in zebrafish (conclusion from morphological and analytical assessment),[3],teratogens
same,Coagulation,[3]; [5],2/20
same,Deviation Tail Curve,[3]; [5],1/18
same,Malformation Head Deviation Eye,[3]; [5],1/18
same,Malformation Head Deviation Mouth,[3]; [5],2/18
same,Malformation Head Deviation Shape Head,[3]; [5],3/18
same,Deviation Tail Curve,[3]; [6],2/20
same,Malformation Head Deviation Mouth,[3]; [6],3/20
same,Oedema Yolk,[3]; [6],3/20
"O=C1NC(=O)C(c2ccccc2)(c2ccccc2)N1 [PHE, phenytoin]",Decrease of parent compound after 240 min (pilot investigation),[4],No decrease
same,"Embryos affected, combining teratogenic and lethal effects",zebrafish embryos; 31.25 µM,less than 20%
same,"Embryos affected, combining teratogenic and lethal effects",zebrafish embryos; 250 µM,around 50%
same,Percentage of larvae affected at 72 hpf,zebrafish embryos; 250 µM,45.0 ± 21.8%
same,Quantified concentration in culture medium lower than the nominal concentration,"[2]; 31.25 µM, stable over time",20%
same,Quantified concentration lower than the nominal concentration,"[2]; 85 µM, culture medium at 96 and 120 hpf and stock medium at 120 hpf",around 35%
same,Quantified concentration lower than the expected concentration,"[2]; 85 µM, stock medium at 0 hpf and culture medium at 48 hpf",around 20%
same,Quantified concentration as percentage of the nominal concentration,"[2]; 250 µM, stock and culture medium, all time points",≤ 45%
same,Dissolution / precipitation in EMS,[2]; visually observed in the stock medium for 85 and 250 µM,did not dissolve properly in the EMS and/or precipitated in EMS
same,Teratogenicity in zebrafish (conclusion from morphological and analytical assessment),[3],teratogens
same,Deviation Tail Curve,[3]; [7],1/20
same,Malformation Head Deviation Eye,[3]; [7],2/20
same,Deviation Pigmentation,[3]; [5],2/20
same,Deviation Tail Elbow,[3]; [5],1/20
same,Deviation Tail Tissue Deviation,[3]; [5],2/20
same,Deviation Tail Elbow,[3]; [6],2/20
same,Deviation Tail Tissue Deviation,[3]; [6],1/20
same,No Hatching,[3]; [6],1/20
same,Oedema Head,[3]; [6],1/20
same,Oedema Pericardium,[3]; [6],1/20
same,Oedema Yolk,[3]; [6],1/20
